The target in assay [1] is T1, wild-type apelin receptor (Homo sapiens, UniProt P35414).
T1 construct: expressed in transfected cells; host or cells: CHO-K1 (ECACC 85051005), transient, pcDNA3.1
T1 sequence (P35414 1-380): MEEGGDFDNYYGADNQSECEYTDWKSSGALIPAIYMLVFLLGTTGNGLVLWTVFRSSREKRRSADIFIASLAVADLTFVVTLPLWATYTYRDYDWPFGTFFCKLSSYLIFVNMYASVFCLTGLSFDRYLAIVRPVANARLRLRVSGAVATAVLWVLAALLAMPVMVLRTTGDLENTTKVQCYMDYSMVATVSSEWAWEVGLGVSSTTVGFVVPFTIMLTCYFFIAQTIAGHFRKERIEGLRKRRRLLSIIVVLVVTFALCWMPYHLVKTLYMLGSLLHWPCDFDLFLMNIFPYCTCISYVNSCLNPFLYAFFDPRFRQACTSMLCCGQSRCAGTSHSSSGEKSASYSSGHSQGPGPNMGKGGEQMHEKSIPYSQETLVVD
As to the kind of experiment: Saturation radioligand binding, CHO-K1 membranes, wild-type. Particulars: WT; mean ± SD, n = 3. On the procedure: (§1) The radiolabel has a specific activity of 2200 Ci/mmol. Plastic-ware used in radioligand binding experiments was coated with Sigmacote, a siliconising reagent that forms a covalent film to reduce sticking of the radiolabel.
(§2) Membrane protein preparations were made by harvesting CHO-K1 cells transiently transfected with wild-type or variant apelin receptor construct into tubes. Tubes were spun at 1000 xg for 10 min at 4 °C to pellet cells, before resuspending and triturating in ice-cold TRIS wash buffer (50 mM TRIS-HCl in deionised water, pH balanced to 7.4 at room temperature) to induce complete hypotonic lysis of cells. Cells were spun a second time at 21,000 × g for 20 min at 4 °C, to obtain a crude membrane fraction. Supernatant was discarded and membrane preparations resuspended in TRIS wash buffer. Cell membrane preparations were stored at –70 °C until use in experiments. Protein concentration of cell membrane preparations was determined using a DC Protein Assay (Bio-Rad), as per the manufacturer’s instructions.
(§3) For binding experiments, membrane preparations were diluted in binding buffer (50 mM TRIS-HCl and 5 mM MgCl2, balanced to pH 7.4 at room temperature) to give a final protein concentration of 1 mg/mL. […] At the end-point, samples were spun in a centrifuge at 20,000 × g for 10 min at 4 °C to terminate equilibrium. […]

In assay [2] the target is T2, V/L38^1.42 variant apelin receptor (Homo sapiens, UniProt P35414, V38L).
T2 construct: expressed in transfected cells; host or cells: CHO-K1, transient, pcDNA3.1
T2 sequence (P35414 1-380 V38L): T1 sequence (P35414 1-380) with V38L
As to the kind of experiment: Saturation radioligand binding, CHO-K1 membranes, V/L38^1.42. On the procedure:
as §1, §2, §3

In assay [3] the test system is G/X45^1.49 variant apelin receptor. The experiment in a line: Saturation radioligand binding, CHO-K1 membranes, G/X45^1.49. Details: species or system human. On the procedure:
as §1, §2
(§4) For binding experiments, membrane preparations were diluted in binding buffer (50 mM TRIS-HCl and 5 mM MgCl2, balanced to pH 7.4 at room temperature) to give a final protein concentration of 1 mg/mL. […] At the end-point, samples were spun in a centrifuge at 20,000 × g for 10 min at 4 °C to terminate equilibrium. Supernatant was aspirated, and pellets were resuspended and triturated in 500 μL ice-cold wash buffer, over ice. Samples were spun a second time at 20,000 × g for 10 min at 4 °C, before aspiration of the supernatant. Radioactivity in pellets was counted using a Cobra II model 5003 gamma counter (Packard).
(§5) Saturation binding data were analysed using the EBDA and LIGAND components of the KELL (Kinetic, EBDA, Ligand, Lowry) software package (Biosoft)[58] to generate receptor affinity (KD) and receptor density (Bmax) values. […] Saturation data were presented using the nonlinear one site-specific binding with Hill slope model fitted by GraphPad Prism version 6.07 for Windows (GraphPad Software).

Assay [4] deals with T3, T/M89^2.64 variant apelin receptor (Homo sapiens, UniProt P35414, T89M).
T3 construct: expressed in transfected cells; host or cells: CHO-K1, transient, pcDNA3.1
T3 sequence (P35414 1-380 T89M): T1 sequence (P35414 1-380) with T89M
As to the kind of experiment: Saturation radioligand binding, CHO-K1 membranes, T/M89^2.64. Particulars: mean ± SD, n = 3. On the procedure:
as §1, §2, §3

In assay [5] the target is T4, R/H168^4.64 variant apelin receptor (Homo sapiens, UniProt P35414, R168H).
T4 construct: expressed in transfected cells; host or cells: CHO-K1, transient, pcDNA3.1
T4 sequence (P35414 1-380 R168H): T1 sequence (P35414 1-380) with R168H
The experiment in a line: Saturation radioligand binding, CHO-K1 membranes, R/H168^4.64. On the procedure:
as §1, §2, §3

The subject of assay [6] is T/X227^5.64 variant apelin receptor. As to the kind of experiment: Saturation radioligand binding, CHO-K1 membranes, T/X227^5.64. Further details: species or system human. On the procedure:
as §1, §2, §4, §5

The test system of assay [7] is untransfected CHO-K1 cells. As to the kind of experiment: Saturation radioligand binding, untransfected CHO-K1 membranes.
The test system of assay [8] is R/H168^4.64 apelin receptor, hESC. The experiment in a line: Saturation radioligand binding, R/H168^4.64 hESC membranes. Further details: species or system human. On the procedure: as §1, §2, §3
For assay [9], the system named is R/H168^4.64 apelin receptor, hESC-CM. As to the kind of experiment: Saturation radioligand binding, R/H168^4.64 hESC-CM membranes. Details: species or system human. On the procedure: as §1, §2, §3
Assay [10] concerns the target apelin receptor, homogenised human left ventricle. Particulars: previously determined by saturation analysis in homogenised human left ventricle; cited from earlier work. On the procedure: Heart Homogenate. Ethically approved (Research Ethics Committee 05/Q104/142) surgical samples of human left ventricle tissue were obtained with informed consent at the time of operation from Royal Papworth Hospital Tissue Bank and stored at -80°C. Tissues were homogenised using a Polytron Homogenizer (Thomas Scientific), in buff ...

For assay [11], the system named is G/X45^1.49 variant apelin receptor. The experiment in a line: High content screening, fluorescent ligand binding in transfected CHO-K1 cells, G/X45^1.49. Details: species or system human. Particulars: 1 µM, 90 min, mean ± SD, n = 4 in triplicate. On the procedure: (§6) Cells were maintained at 37 °C, in humidified air containing 5% CO2.
(§7) High content screening was used to characterise apelin receptor variant expression, membrane localisation, and fluorescent ligand binding. CHO-K1 cells transiently transfected with wild-type or variant apelin receptor construct tagged C-terminally with eGFP were plated at ~10,000/well in CellCarrier-96 Ultra Plates (PerkinElmer). […] Fluorescent ligand was washed out with HBSS, and cells were fixed with 4% formaldehyde for ~3 min. […] After a final wash, cells were maintained in 100 µL HBSS.
(§8) Cells maintained in the 96-well plates were imaged on an Opera Phenix High Content Screening System (PerkinElmer), a highly sensitive, dual-camera spinning disk confocal fluorescent imaging platform, using a 40x/NA1.1 water immersion objective. […] Three fluorescent channels were used. […] For all channels, excitation laser intensity was set at 50% power, with a 50 ms exposure time. Additionally, each imaging field was imaged using bright-field and digital phase contrast (DPC). […]
(§9) Mean membrane fluorescence was then quantified for the green channel as an indication of membrane protein expression, and for the red channel as an indication of fluorescent ligand binding.

Assay [12] has as its system T/X227^5.64 variant apelin receptor. The experiment in a line: High content screening, fluorescent ligand binding in transfected CHO-K1 cells, T/X227^5.64. Further details: species or system human. Particulars: 1 µM, 90 min, mean ± SD, n = 4 in triplicate. On the procedure:
as §6, §7, §8, §9

The mark [13] stands for this setting: 90 min, room temperature, pH 7.4.

Changes are numbered by the printed parent chain. Where no end group is shown, it is not given here. 647 dye = not defined here

As for `CCCC[C@H](NC(=O)[C@@H]1CCCN1C(=O)CNC(=O)[C@H](CCCCN)NC(=O)[C@H](Cc1c[nH]cn1)NC(=O)[C@H](CO)NC(=O)[C@H](CC(C)C)NC(=O)[C@H](CCCNC(=N)N)NC(=O)[C@@H]1CCCN1C(=O)[C@H](CCCNC(=N)N)NC(=O)[C@@H]1CCC(=O)N1)C(=O)N1CCC[C@H]1C(=O)N[C@@H](Cc1ccc(O)c(I)c1)C(=O)O` [[^125I]-apelin-13], the Bmax in [1] is 236.80 ± 27.07 fmol/mg; in [2] it was “NBD”; in assay [3], “NBD”; in assay [4] it was 440.47 ± 38.36 fmol/mg; in assay [5] it was “NBD”; in assay [6] it was “NBD”. Besides, the Bmax result in assay [7] is reported as “NBD”. Besides, the “Hill slope (nH)” value in assay [1] is 1.26 ± 0.22; in [2], “NBD”; in assay [3], “NBD”; in assay [4], 1.55 ± 0.22; in [5] it was “NBD”; in [6], “NBD”. For the same compound, the “Hill slope (nH)” value in assay [7] is on record as “NBD”. In addition, the KD result in assay [3] (setting [13]), in [6] (setting [13]) and in [7] (setting [13]) was “NBD” in each case. The “[125I]-apelin-13 binding versus wild-type” value in assay [8] and in assay [9] was “significantly reduced” throughout. For the same compound, in assay [10], the Kd is 0.076 nM.
Regarding “ELA647: fluorescently labelled ELA peptide ({647 dye}-QRPVNLTMRRKLRKHNCLQRRCMPLHSRVPFP; ends and bridges not checked; UniProt P0DMC3 23-54, looked up)”, the entries for the “Mem. ELA647” value in [11] and in assay [12] were 20.73 ± 12.55 % WT and 14.83 ± 7.02 % WT, respectively.

The values are drawn from article PMC11680790, “Structural and functional determination of peptide versus small molecule ligand binding at the apelin receptor” (Nature Communications, 2024).
